Data taken from paper PMC5428058, “Local delivery of novel MRTF/SRF inhibitors prevents scar tissue formation in a preclinical model of fibrosis” (Scientific Reports, 2017).

Tests used:
[1] = system: rabbit conjunctival fibroblasts; assay: fibroblast-populated collagen contraction assay (rabbit); format: cell-based; details: 7 days
Protocol: We screened two candidate MRTF/SRF pathway inhibitors, CCG-222740 and CCG-203971, using detached three-dimensional fibroblast-populated collagen gels[56], [57]. Human or rabbit conjunctival fibroblasts were seeded in a collagen Type I matrix (First Link UK Ltd, Birmingham, UK) at a concentration of 0.7 × 10^4 cells/ml. The fibroblast-populated collagen gel mixture was cast into the wells of MatTek dishes (MatTek Corp, MI, USA). The gels were detached from the edges of the well and 2 ml of growth medium were added to each well with 5, 25, 50, 75, or 100 μM of CCG-222740 or CCG-203971 or 0.1% DMSO control. Digital photographs were obtained daily and lattice areas were measured using Image J software (http://rsb.info.nih.gov/ij/). The gel size at day 7 was assessed as a percentage of lattice area on day 0. Each experiment was performed as triplicate gels per condition and the experiment was repeated on three separate days.

[2] = system: αSMA protein in human conjunctival fibroblasts; assay: Western blot of αSMA protein expression; format: cell-based; details: 10 or 25 μM, 48 hours
Protocol: Human conjunctival fibroblasts were lysed using 2x SDS sample buffer (100 mM Tris HCL ph6.8, 4% SDS, 20% glycerol, 200 mM dithiothreitol, 0.2% bromophenol blue). Equal amounts of protein were loaded onto and run on 4–12% NuPAGE Bis-Tris protein gels (Novex, Life Technologies). The gels were transferred onto nitrocellulose blotting membranes (Amersham, Life Sciences), and blocked in 3% non-fat milk in PBST (PBS 0.1% Tween) for 1 hour. The membranes were then incubated overnight at 4 °C in αSMA primary antibody (1:200, polyclonal rabbit, ab5694, Abcam). The next day, the membranes were washed three times for 10 minutes in PBST, and incubated for 1 hour at room temperature in anti-rabbit HRP (1:2500, Dako). The membranes were then washed three times for 10 minutes in PBST, treated with ECL solution (Amersham, Life sciences) for 5 minutes, and scanned on an Odyssey IR Imager (LI-COR).

O=C(Nc1ccc(Cl)cc1)C1CN(C(=O)c2cccc(-c3ccco3)c2)CC(F)(F)C1 (centres unmarked) [CCG-222740]
decrease of collagen matrix contraction, comparison [1]: more effective at decreasing collagen matrix contraction than CCG-203971
αSMA protein expression, comparison [2]: more potent than CCG-203971 at decreasing αSMA protein expression
